# Reference: US20080221082A1, “Ligands of Integrin Receptors” (priority 2000, published 2008)
# What was measured:
# integrin αvβ3 = biological target: T1, integrin αvβ3 (Homo sapiens, UniProt P05106+P06756); assay: Integrin αvβ3 assay (competition between vitronectin and the test substance for binding to solid phase-bound integrin αvβ3); conditions: integrin αvβ3 from human placenta; human vitronectin as competing ligand; result in words only
# T1 construct: from tissue; host or cells: human placenta
# Procedure: For the identification and assessment of integrin αvβ3 ligands, a test system was used which was based on competition between the natural integrin αvβ3 ligand vitronectin and the test substance for binding to solid phase-bound integrin αvβ3.
# • Microtiter plates coated with 250 ng/ml of integrin αvβ3 in 0.05 M NaHCO3 pH 9.2; 0.1 ml/well; • saturation with 1% powdered milk/assay buffer; 0.3 ml/well; 0.5 h/RT • 3× washing with 0.05% Tween 20/assay buffer • test substance in 0.1% powdered milk/assay buffer, 50 μl/well+0 μg/ml or 2 μg/ml of human vitronectin (Boehringer Ingelheim T007) in 0.1% powdered milk/assay buffer, 50 μl/well; 1 h/RT • 3× washing with 0.05% Tween 20/assay buffer • 1 μg/ml of anti human vitronectin antibody coupled to peroxidase (Kordia SAVN-APHRP) in 0.1% powdered milk/assay buffer; 0.1 ml/well; 1 h/RT • 3× washing with 0.05% Tween 20/assay buffer • 0.1 ml/well of peroxidase substrate • stop reaction with 0.1 ml/well of 2 M H2SO4 • measurement of the absorption at 450 nm
# Integrin αvβ3: Human placenta is solubilized with Nonidet and integrin αvβ3 affinity-purified on a GRGDSPK matrix (elution with EDTA). Impurities due to integrin αIIbβ3 and human serum albumin, and the detergent and EDTA are removed by anion-exchange chromatography.
# Assay buffer: 50 mM Tris pH 7.5; 100 mM NaCl; 1 mM CaCl2; 1 mM MgCl2; 10 μM MnCl2 […]
IC50 values (concentration of the ligand at which 50% of the ligand is displaced) (integrin αvβ3),melting point,Structure (SMILES)
best result,,"O=C(O)CC1CCC(=O)N(CC(=O)NCc2ccc(-c3nc4ccccc4[nH]3)cc2)c2ccccc21 (centres unmarked) [Example VII, [1-(2-{[4-(1H-Benzimidazol-2-yl)benzyl]amino}-2-oxoethyl)-2-oxo-2,3,4,5-tetrahydro-1H-1-benzazepin-5-yl]acetic acid]"
,231 °C (dec.),"CC(C)(C)OC(=O)CC1CCC(=O)N(CC(=O)NCc2ccc(Nc3nc4ccccc4[nH]3)cc2)c2ccccc21 (centres unmarked) [Example 99, tert-Butyl [1-(2-{[4-(1H-benzimidazole-2-ylamino)benzyl]amino}-2-oxoethyl)-2-oxo-2,3,4,5-tetrahydro-1H-1-benzazepine-5-yl]acetate]"
